# Test results as given in patent US9000159B2 (Glenmark Pharmaceuticals, S.A., priority 2009, dated 2015).
# Target: T1, Human TRPA1 (Homo sapiens, UniProt O75762)
# T1 construct: expressed in transfected cells; host or cells: CHO cells
# Test: 45Calcium uptake assay: inhibition of AITC induced cellular uptake of radioactive calcium
# Type: cell-based
# Details: AITC (30 μM) induced 45Ca uptake, Human TRPA1 expressing CHO cells; for inhibition at 1 µM: 1.0 μM test compound, read-out: Percentage inhibition at 1.0 μM; for inhibition at 10 µM: 10.0 μM test compound, read-out: Percentage inhibition at 10.0 μM; for IC50: read-out: Human IC50 value (range)
# From the text: The illustrative examples of the present invention are screened for TRPA1 activity according to a modified procedure described in (a) Tóth, A. et al., Life Sciences, 2003, 73, 487-498. (b) McNamara C, R. et al., Proc. Natl. Acad. Sci. U.S.A., 2007, 104, 13525-13530. The screening of the compounds can be carried out by other methods and procedures known to persons skilled in the art.
# Screening for TRPA1 Antagonist Using the ^45Calcium Uptake Assay
# The inhibition of TRPA1 receptor activation was measured as inhibition of allyl isothiocyanate (AITC) induced cellular uptake of radioactive calcium. Test compounds were dissolved in DMSO to prepare 10 mM stock solution and then diluted using plain medium with 0.1% BSA and 1.8 mM CaCl2 to get desired concentration. Final concentration of DMSO in the reaction was 0.5% (v/v). Human TRPA1 expressing CHO cells were grown in F-12 DMEM medium with 10% FBS, 1% penicillin-streptomycin solution, 400 μg/ml of G-418. Cells were seeded 24 h prior to the assay in 96 well plates so as to get ˜50,000 cells per well on the day of experiment. Cells were treated with test compounds for 10 min followed by addition of AITC at a final concentration of 30 μM and 5 μCi/ml ^45Ca^+2 for 3 min. Cells were washed and lysed using buffer containing 1% Triton X-100, 0.1% deoxycholate and 0.1% SDS. Radioactivity in the lysate was measured in Packard Top count after addition of liquid scintillant. Concentration response curves were plotted as a % of maximal response obtained in the absence of test antagonist. IC50 value was calculated from concentration response curve by nonlinear regression analysis using GraphPad PRISM software.
# T1 sequence (O75762 whole entry): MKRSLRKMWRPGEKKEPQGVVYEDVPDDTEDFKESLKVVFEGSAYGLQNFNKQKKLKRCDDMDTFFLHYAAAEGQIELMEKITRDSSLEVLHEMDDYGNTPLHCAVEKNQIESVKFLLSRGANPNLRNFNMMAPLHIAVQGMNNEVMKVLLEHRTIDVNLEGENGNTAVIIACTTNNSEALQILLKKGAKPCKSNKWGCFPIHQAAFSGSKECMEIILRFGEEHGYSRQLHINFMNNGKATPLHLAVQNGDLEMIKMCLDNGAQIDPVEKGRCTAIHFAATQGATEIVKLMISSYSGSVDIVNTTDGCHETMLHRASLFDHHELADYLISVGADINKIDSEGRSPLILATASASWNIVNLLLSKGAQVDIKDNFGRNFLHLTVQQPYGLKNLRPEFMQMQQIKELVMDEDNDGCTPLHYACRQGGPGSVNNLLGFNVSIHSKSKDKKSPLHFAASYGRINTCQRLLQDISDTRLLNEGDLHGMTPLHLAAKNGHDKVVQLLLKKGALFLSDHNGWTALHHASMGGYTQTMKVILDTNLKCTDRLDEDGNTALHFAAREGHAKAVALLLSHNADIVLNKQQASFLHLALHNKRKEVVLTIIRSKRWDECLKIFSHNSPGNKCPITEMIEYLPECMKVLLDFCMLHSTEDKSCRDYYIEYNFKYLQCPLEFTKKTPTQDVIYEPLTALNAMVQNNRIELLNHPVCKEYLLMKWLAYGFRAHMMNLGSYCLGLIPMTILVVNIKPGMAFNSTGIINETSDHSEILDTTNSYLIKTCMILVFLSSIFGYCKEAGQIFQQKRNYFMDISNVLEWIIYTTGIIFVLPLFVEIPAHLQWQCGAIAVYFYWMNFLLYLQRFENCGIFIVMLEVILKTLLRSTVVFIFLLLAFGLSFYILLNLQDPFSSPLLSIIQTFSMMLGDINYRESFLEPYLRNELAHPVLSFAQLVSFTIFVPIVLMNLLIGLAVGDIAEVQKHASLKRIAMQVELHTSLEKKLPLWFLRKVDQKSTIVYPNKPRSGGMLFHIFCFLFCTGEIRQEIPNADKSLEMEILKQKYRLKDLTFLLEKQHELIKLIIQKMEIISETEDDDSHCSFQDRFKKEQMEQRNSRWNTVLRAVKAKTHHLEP
inhibition at 1 µM [%],inhibition at 10 µM [%],IC50 [nM],SMILES
23.1,21.4,,"Cn1c(=O)c2c(ccn2CC(=O)Nc2nc(-c3ccc(F)cc3F)cs2)n(C)c1=O [Example 1, N-[4-(2,4-Difluorophenyl)-1,3-thiazol-2-yl]-2-(1,3-dimethyl-2,4-dioxo-1,2,3,4-tetrahydro-5H-pyrrolo[3,2-d]pyrimidin-5-yl)acetamide]"
35.4,79.5,,"Cn1c(=O)c2c(ccn2CC(=O)Nc2nc(-c3ccc(F)c(C(F)(F)F)c3)cs2)n(C)c1=O [Example 2, 2-(1,3-Dimethyl-2,4-dioxo-1,2,3,4-tetrahydro-5H-pyrrolo[3,2-d]pyrimidin-5-yl)-N-{4-[4-fluoro-3-(trifluoromethyl)phenyl]-1,3-thiazol-2-yl}acetamide]"
94.4,98.8,< 50,"Cn1c(=O)c2c(ccn2CC(=O)Nc2nc(-c3ccc(C(F)(F)F)c(F)c3)cs2)n(C)c1=O [Example 3, 2-(1,3-Dimethyl-2,4-dioxo-1,2,3,4-tetrahydro-5H-pyrrolo[3,2-d]pyrimidin-5-yl)-N-{4-[3-fluoro-4-(trifluoromethyl)phenyl]-1,3-thiazol-2-yl}acetamide]"
34.4,89.8,,"Cn1c(=O)c2c(ccn2CC(=O)Nc2nc(-c3ccc(Cl)c(C(F)(F)F)c3)cs2)n(C)c1=O [Example 4, 2-(1,3-Dimethyl-2,4-dioxo-1,2,3,4-tetrahydro-5H-pyrrolo[3,2-d]pyrimidin-5-yl)-N-{4-[4-chloro-3-(trifluoromethyl)phenyl]-1,3-thiazol-2-yl}acetamide]"
55.3,82.3,,"Cn1c(=O)c2c(ccn2CC(=O)Nc2nc(-c3ccc(Cl)c(Cl)c3Cl)cs2)n(C)c1=O [Example 5, 2-(1,3-Dimethyl-2,4-dioxo-1,2,3,4-tetrahydro-5H-pyrrolo[3,2-d]pyrimidin-5-yl)-N-[4-(2,3,4-trichlorophenyl)-1,3-thiazol-2-yl]acetamide]"
60.7,91.3,,"Cn1c(=O)c2c(ccn2CC(=O)Nc2nc(-c3ccc(F)c(C(F)(F)F)c3F)cs2)n(C)c1=O [Example 9, 2-(1,3-Dimethyl-2,4-dioxo-1,2,3,4-tetrahydro-5H-pyrrolo[3,2-d]pyrimidin-5-yl)-N-{4-[2,4-difluorophenyl-3-trifluoromethyl]-1,3-thiazol-2-yl}acetamide]"
86.5,98.8,50 to 100,"Cn1c(=O)c2c(ccn2CC(=O)Nc2nc(-c3cc(Cl)c(OCC(C)(C)C)c(Cl)c3)cs2)n(C)c1=O [Example 13, N-{4-[3,5-Dichloro-4-(2,2-dimethylpropoxy)phenyl]-1,3-thiazol-2-yl}-2-(1,3-dimethyl-2,4-dioxo-1,2,3,4-tetrahydro-5H-pyrrolo[3,2-d]pyrimidin-5-yl)acetamide]"
92.5,92.5,< 50,"Cn1c(=O)c2c(ccn2CC(=O)Nc2nc(-c3cc(Cl)c(OCCC(F)(F)F)c(Cl)c3)cs2)n(C)c1=O [Example 14, N-{4-[3,5-Dichloro-4-(3,3,3-trifluoropropoxy)phenyl]-1,3-thiazol-2-yl}-2-(1,3-dimethyl-2,4-dioxo-1,2,3,4-tetrahydro-5H-pyrrolo[3,2-d]pyrimidin-5-yl)acetamide]"
72.1,76.9,,"Cn1c(=O)c2c(ccn2CC(=O)Nc2nc(-c3cc(Cl)c(OCC4CCC4)c(Cl)c3)cs2)n(C)c1=O [Example 19, 2-(1,3-Dimethyl-2,4-dioxo-1,2,3,4-tetrahydro-5H-pyrrolo[3,2-d]pyrimidin-5-yl)-N-{4-[4-(cyclobutylmethoxy)-3,5-dichlorophenyl]-1,3-thiazol-2-yl}acetamide]"

# More lines, now with the values behind:
SMILES,inhibition at 1 µM [%],inhibition at 10 µM [%],IC50 [nM]
"CC(C)COc1c(F)cc(-c2csc(NC(=O)Cn3ccc4c3c(=O)n(C)c(=O)n4C)n2)cc1F [Example 6, 2-(1,3-Dimethyl-2,4-dioxo-1,2,3,4-tetrahydro-5H-pyrrolo[3,2-d]pyrimidin-5-yl)-N-{4-[4-(2-methylpropoxy)-3,5-difluorophenyl]-1,3-thiazol-2-yl}acetamide]",42.4,52.8,
"CC(C)CCOc1c(F)cc(-c2csc(NC(=O)Cn3ccc4c3c(=O)n(C)c(=O)n4C)n2)cc1F [Example 7, N-{4-[3,5-Difluoro-4-(3-methylbutoxy)phenyl]-1,3-thiazol-2-yl}-2-(1,3-dimethyl-2,4-dioxo-1,2,3,4-tetrahydro-5H-pyrrolo[3,2-d]pyrimidin-5-yl)acetamide]",35.5,37.3,
"Cn1c(=O)c2c(ccn2CC(=O)Nc2nc(-c3cc(F)c(OCC(C)(C)C)c(F)c3)cs2)n(C)c1=O [Example 8, N-{[4-(2,2-Dimethylpropoxy)-3,5-difluorophenyl]-1,3-thiazol-2-yl}-2-(1,3-dimethyl-2,4-dioxo-1,2,3,4-tetrahydro-5H-pyrrolo[3,2-d]pyrimidin-5-yl)acetamide]",91.9,100,< 50
"Cn1c(=O)c2c(ccn2CC(=O)Nc2nc(-c3cc(F)c(OC(F)F)c(F)c3)cs2)n(C)c1=O [Example 10, N-{4-[4-(Difluoromethoxy)-3,5-difluorophenyl]-1,3-thiazol-2-yl}-2-(1,3-dimethyl-2,4-dioxo-1,2,3,4-tetrahydro-5H-pyrrolo[3,2-d]pyrimidin-5-yl)acetamide]",91,95.3,50 to 100
"Cn1c(=O)c2c(ccn2CC(=O)Nc2nc(-c3cc(F)c(OCC(F)(F)F)c(F)c3)cs2)n(C)c1=O [Example 11, N-{4-[3,5-Difluoro-4-(2,2,2-trifluoroethoxy)phenyl]-1,3-thiazol-2-yl}-2-(1,3-dimethyl-2,4-dioxo-1,2,3,4-tetrahydro-5H-pyrrolo[3,2-d]pyrimidin-5-yl)acetamide]",96.3,98.1,< 50
"Cn1c(=O)c2c(ccn2CC(=O)Nc2nc(-c3cc(F)c(OCCC(F)(F)F)c(F)c3)cs2)n(C)c1=O [Example 12, N-{4-[3,5-Difluoro-4-(3,3,3-trifluoropropoxy)phenyl]-1,3-thiazol-2-yl}-2-(1,3-dimethyl-2,4-dioxo-1,2,3,4-tetrahydro-5H-pyrrolo[3,2-d]pyrimidin-5-yl)acetamide]",97.4,96,< 50
"Cn1c(=O)c2c(ccn2CC(=O)Nc2nc(-c3cc(Cl)c(OCCC(F)(F)C(F)(F)F)c(Cl)c3)cs2)n(C)c1=O [Example 15, N-{4-[3,5-Dichloro-4-(3,3,4,4,4-pentafluorobutoxy)phenyl]-1,3-thiazol-2-yl}-2-(1,3-dimethyl-2,4-dioxo-1,2,3,4-tetrahydro-5H-pyrrolo[3,2-d]pyrimidin-5-yl)acetamide]",76.5,92.5,50 to 100
"Cn1c(=O)c2c(ccn2CC(=O)Nc2nc(-c3cc(F)c(OCC(F)(F)F)c(Cl)c3)cs2)n(C)c1=O [Example 16, N-{4-[3-Chloro-5-fluoro-4-(2,2,2-trifluoroethoxy)phenyl]-1,3-thiazol-2-yl}-2-(1,3-dimethyl-2,4-dioxo-1,2,3,4-tetrahydro-5H-pyrrolo[3,2-d]pyrimidin-5-yl)acetamide]",95,97.1,< 50
"Cn1c(=O)c2c(ccn2CC(=O)Nc2nc(-c3cc(F)c(OCC4CC4)c(F)c3)cs2)n(C)c1=O [Example 17, 2-(1,3-Dimethyl-2,4-dioxo-1,2,3,4-tetrahydro-5H-pyrrolo[3,2-d]pyrimidin-5-yl)-N-{4-[4-(cyclopropylmethoxy)-3,5-difluorophenyl]-1,3-thiazol-2-yl}acetamide]",33.5,49.9,
"Cn1c(=O)c2c(ccn2CC(=O)Nc2nc(-c3cc(F)c(OCC4CCC4)c(F)c3)cs2)n(C)c1=O [Example 18, 2-(1,3-Dimethyl-2,4-dioxo-1,2,3,4-tetrahydro-5H-pyrrolo[3,2-d]pyrimidin-5-yl)-N-{4-[4-(cyclobutylmethoxy)-3,5-difluorophenyl]-1,3-thiazol-2-yl}acetamide]",38.4,38.7,
"Cn1c(=O)c2c(ccn2CC(=O)Nc2nc(-c3cc(F)c(OCc4ccccc4C(F)(F)F)c(F)c3)cs2)n(C)c1=O [Example 20, 2-(1,3-Dimethyl-2,4-dioxo-1,2,3,4-tetrahydro-5H-pyrrolo[3,2-d]pyrimidin-5-yl)-N-{4-[3,5-difluoro-4-[2-(trifluoromethyl)benzyloxy]phenyl)-1,3-thiazol-2-yl}acetamide]",22.6,67.7,
